Results on five compounds are retold here after PMC6843921 (Biomolecules, 2019).

SMILES strings stand for the structures. Values joined by “and” are separate entries in the source; they are usually repeats but may differ in a detail not shown here. Equal values may be shown once. Read-outs that look alike come from different tables or passages of the source.

Test [1] has as its target T1, mtDUT (Mycobacterium tuberculosis, UniProt P9WNS5). In words: biochemical. Also on record: His tag (N); made in house. In kind it is binding.
Test [2] concerns the target T2, hDUT (Homo sapiens, UniProt P33316).
T2 sequence (P33316 1-164 isoform P33316-2): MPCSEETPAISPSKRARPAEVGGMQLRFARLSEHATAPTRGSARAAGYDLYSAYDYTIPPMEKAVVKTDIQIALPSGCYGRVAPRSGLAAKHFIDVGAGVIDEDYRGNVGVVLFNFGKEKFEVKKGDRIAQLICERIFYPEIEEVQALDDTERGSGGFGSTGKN
As to the kind of experiment: Thermofluor stability assay. In kind it is binding. Also on record: His tag (N); made in house. The settings on record: for Tm (5 mM Mg^2+): 5 mM MgCl2. On the technique in general: In DSF a fluorescence change marks the thermal transition of the protein.

For test [3], the target named is T2, hDUT. Details: His tag (N); made in house; method as in PMID 20601405, PMID 17880943, PMID 17848562. The settings on record: same titration in the presence of Mg^2+; cited from earlier work.
The target in test [4] is T2, hDUT. In words: Isothermal titration calorimetry (ITC). It counts as binding. Also on record: His tag (N); made in house. (In general: Isothermal titration calorimetry measures the heat released or taken up as one component is titrated into another.)
In test [5] the target is T3, Taq polymerase (Thermus aquaticus, UniProt P19821). In words: biochemical.
T3 sequence (P19821 whole entry): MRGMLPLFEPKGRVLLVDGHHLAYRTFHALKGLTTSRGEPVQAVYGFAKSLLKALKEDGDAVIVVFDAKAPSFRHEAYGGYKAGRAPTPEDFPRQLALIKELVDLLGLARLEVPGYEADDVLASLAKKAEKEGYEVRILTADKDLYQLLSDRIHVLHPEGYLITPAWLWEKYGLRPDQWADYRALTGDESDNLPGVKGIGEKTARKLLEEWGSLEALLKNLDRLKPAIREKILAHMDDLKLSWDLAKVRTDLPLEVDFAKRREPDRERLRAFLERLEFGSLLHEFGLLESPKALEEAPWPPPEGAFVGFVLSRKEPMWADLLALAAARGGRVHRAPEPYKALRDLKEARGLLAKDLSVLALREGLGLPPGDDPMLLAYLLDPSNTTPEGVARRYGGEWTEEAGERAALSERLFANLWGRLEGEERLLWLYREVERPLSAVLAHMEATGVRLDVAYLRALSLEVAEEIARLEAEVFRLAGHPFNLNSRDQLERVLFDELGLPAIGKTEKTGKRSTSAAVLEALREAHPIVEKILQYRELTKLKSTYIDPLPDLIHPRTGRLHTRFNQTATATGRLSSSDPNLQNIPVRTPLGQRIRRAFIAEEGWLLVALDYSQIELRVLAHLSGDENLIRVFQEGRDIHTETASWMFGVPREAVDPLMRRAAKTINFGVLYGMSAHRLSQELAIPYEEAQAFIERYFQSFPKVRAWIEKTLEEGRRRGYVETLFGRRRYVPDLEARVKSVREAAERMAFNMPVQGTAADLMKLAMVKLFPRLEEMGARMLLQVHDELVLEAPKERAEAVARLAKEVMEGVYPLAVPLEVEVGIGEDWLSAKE
For test [6], the target named is T4, EcMutT (Escherichia coli, UniProt P08337). As to the kind of experiment: biochemical.
T4 sequence (P08337 whole entry): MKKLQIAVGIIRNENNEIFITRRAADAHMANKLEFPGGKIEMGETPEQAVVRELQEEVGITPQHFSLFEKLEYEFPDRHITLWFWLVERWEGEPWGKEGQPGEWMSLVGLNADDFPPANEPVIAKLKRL
Test [7] deals with T4, EcMutT. The settings on record: no Mg^2+, pH 7.5, 293 K.
The conditions of test [8]: EDTA titrated with Mg^2+, pH 7.5, 293 K.
In test [9] the target is T3, Taq polymerase. As to conditions: no Mg^2+, pH 7.5, 293 K.
Test [10] concerns the target T2, hDUT. As to conditions: no Mg^2+; for kcat: dUTP hydrolysis, 20 °C, pH 7.5. On the procedure:
(§1) Continuous pH indicator-based assays were performed to measure enzyme activity at 20 °C as described in [26]. Briefly, 1 µM protein was used in a buffer pH 7.5 containing 1 mM HEPES, 100 mM KCl and 40 µM phenol red. A Specord 200 (Analytic, Jena, Germany) spectrophotometer and 10-mm-path length cuvettes were used, and absorbance was recorded at 559 nm. Initial velocity was determined from the first 10% of the progress curve. […] Data fitting was accomplished using OriginPro 7.5 (OriginLab Corp, Northampton, MA, USA).

The target of test [11] is T1, mtDUT. On the procedure: as §1
Details of test [12]: method as in PMID 9299023. As to conditions: smallest reported value for the ATP:Mg^2+ complex; read-out: dissociation constant; cited from earlier work.
Test [13] has as its target T2, hDUT. Also on record: His tag (N); made in house; method as in PMID 18519027, PMID 17848562. As to conditions: dUTP hydrolysis; 5 mM Mg^2+, no EDTA; reported previously ref 20, 51; cited from earlier work.
The target of test [14] is T1, mtDUT. As to conditions: cited from earlier work.
The mark [15] stands for this setting: fit of the titration shown in Figure S1B, no Mg^2+.
Setting [16] is: no Mg^2+, pH 7.5, 293 K, average and SD.
Setting [17] is: hDUT complexed with ligand (100 µM dUPNPP or 1 mM dUMP).
The mark [18] stands for this setting: apparent, no Mg^2+, pH 7.5, 293 K, average and SD.
The mark [19] stands for this setting: fit of the titration shown in Figure S1A, no Mg^2+.

T1 sequence (P9WNS5 whole entry): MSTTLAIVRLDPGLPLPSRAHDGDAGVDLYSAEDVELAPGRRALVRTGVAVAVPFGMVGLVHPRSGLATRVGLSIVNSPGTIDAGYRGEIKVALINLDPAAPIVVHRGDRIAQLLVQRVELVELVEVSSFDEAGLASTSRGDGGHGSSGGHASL

As to `O=c1ccn([C@H]2C[C@H](O)[C@@H](COP(=O)(O)NP(=O)(O)OP(=O)(O)O)O2)c(=O)[nH]1` [dUPNPP], the “n (stoichiometry)” value on mtDUT [1] came to 1. Besides, on mtDUT [1] (setting [15]), the ΔG result is on record as “–6.2 kcal/mol”, the ΔH entry is “–4.4 kcal/mol” and the “–TΔS” value is reported as “–1.8 kcal/mol”. Besides, at mtDUT [1] (setting [16]), the ΔH is -18.8 ± 0.84 kJ/mol and the “−TΔS” value is -8.79 ± 1.7 kJ/mol. Besides, at hDUT [2] (setting [17]), the “Tm (100 µM EDTA)” value was determined as 58.3 ± 0.1 °C; the “Tm (5 mM Mg^2+)” value is 63.9 ± 0.3 °C; the “Tm (No Mg^2+, no EDTA)” value turned out to be 59.1 ± 0.2 °C. Also, the Kd on hDUT [3] was 2 to 7 µM. In addition, the Kd at hDUT [4] (setting [18]) is 44 µM and 43.9 µM. Moreover, on hDUT [4] (setting [19]), the Kd turned out to be 54 µM, the “n (stoichiometry)” value is 0.41, the ΔG result is given as “–5.7 kcal/mol” and the ΔH entry is reported as “–19.9 kcal/mol”. In addition, the “–TΔS” value at hDUT [4] (setting [19]) was determined as 59 kJ/mol. On hDUT [4] (setting [16]), the ΔG was -24.7 ± 0.84 kJ/mol, the ΔH was -72.8 ± 15.1 kJ/mol and the “−TΔS” value was 48.1 ± 15.5 kJ/mol.

One may read the kcat as the maximal rate divided by the concentration of active sites. Regarding `O=C(O)CN(CCN(CC(=O)O)CC(=O)O)CC(=O)O` [EDTA, ethylene diamine tetraacetic acid], the Kd is 0.078 µM at mtDUT [1]; 0.047 µM on Taq polymerase [5]; 0.55 ± 0.066 µM at EcMutT [6]; 2.53 ± 0.18 µM in test [8] (apparent); 0.199 µM at hDUT [4] (absence of Mg^2+); 0.2 ± 0.009 µM at hDUT [4] (setting [18]). For the same compound, the ΔG was -40.2 ± 0.84 kJ/mol at mtDUT [1] (setting [16]); -35.1 ± 0.42 kJ/mol at EcMutT [7]; -33.5 ± 3.8 kJ/mol in test [8]; -41 ± 0 kJ/mol on Taq polymerase [9]; -37.7 ± 0 kJ/mol on hDUT [4] (setting [16]). The ΔH on mtDUT [1] (setting [16]) was -17.6 ± 4.18 kJ/mol; on EcMutT [7], -40.6 ± 0.084 kJ/mol; in [8], 18.4 ± 1.3 kJ/mol; on Taq polymerase [9], -26.4 ± 2.9 kJ/mol; at hDUT [4] (setting [16]) it was -46.9 ± 1.7 kJ/mol. In addition, the “−TΔS” value was -22.2 ± 5.02 kJ/mol on mtDUT [1] (setting [16]); 5.44 ± 0.42 kJ/mol on EcMutT [7]; -52.3 ± 2.5 kJ/mol in [8]; -14.6 ± 2.9 kJ/mol on Taq polymerase [9]; 9.2 ± 1.7 kJ/mol at hDUT [4] (setting [16]). On hDUT [2] (apo hDUT), the “Tm (100 µM EDTA)” value worked out at 58.5 ± 0.1 °C. The KM increase at hDUT [10] (30 µM EDTA) was 2.7 fold; at mtDUT [11] it was 3.7 fold. In addition, the “kcat decreased to” value on hDUT [10] (100 µM EDTA) is listed as 6%. Besides, the figures for the catalytic constant (kcat) on hDUT [10] (30 µM EDTA) and on hDUT [10] (100 µM EDTA) were 3.30 ± 0.26 s⁻¹ and 0.24 ± 0.03 s⁻¹, respectively.

Regarding `Nc1ncnc2c1ncn2[C@@H]1O[C@H](COP(=O)(O)OP(=O)(O)OP(=O)(O)O)[C@@H](O)[C@H]1O` [ATP], the Kd in test [12] is 46.3 µM.

With `O=c1ccn([C@H]2C[C@H](O)[C@@H](COP(=O)(O)O)O2)c(=O)[nH]1` [dUMP], on hDUT [2] (setting [17]), the “Tm (100 µM EDTA)” value came to 58.7 ± 0.1 °C; the “Tm (5 mM Mg^2+)” value is 62.3 ± 0.1 °C; the “Tm (No Mg^2+, no EDTA)” value was 59.7 ± 0.1 °C.

One may read the Km as the concentration of substrate that gives half-maximal velocity. As for `[Mg+2]` [Mg^2+], the “Tm (5 mM Mg^2+)” value at hDUT [2] (apo hDUT) amounted to 59.5 ± 0.3 °C. Besides, at hDUT [2] (apo hDUT, 5 mM Mg^2+ vs no Mg^2+), the “increase of melting temperature in the presence of Mg^2+” value turned out to be 0.9 °C. Moreover, the Km was 2.26 ± 0.33 µM at hDUT [13] and 1.72 ± 0.51 µM at mtDUT [14] (dUTP hydrolysis, 5 mM Mg^2+, no EDTA, reported previously ref 20, 51). For the same compound, the catalytic constant (kcat) was 5.27 ± 0.24 s⁻¹ at hDUT [13] and 2.39 ± 0.16 s⁻¹ at mtDUT [14].
